Usually IC50 stands for the concentration that gives 50% inhibition.

For 14 molecules, IC50 results are on record in patent publication US11078204B2, “Heterocyclic derivatives as PI3K inhibitors” (Incyte Corporation, priority 2018, dated 2021).

Counter-ions that a name gives are not always drawn.

The test system of assay [1] is Phosphorylated Ribosomal Protein S6 (RPS6) in THP-1 cells. Description: THP-1 RPS6 ELISA Assay. Format: cell-based. The following applies: Homo sapiens, 2 hours compound, 10 nM MCP-1 for 15 minutes, Phospho-RPS6 ELISA, read-out: PI3Kγ_THP1_RPS6_ELISA IC50. As to the method: Example A. THP-1 RPS6 ELISA Assay To measure the Phosphorylated Ribosomal Protein S6 (RPS6) in cell lysates, THP-1 cells (Human Acute Monocytic Leukemia) are purchased from ATCC (Manassas, Va.) and maintained in RPMI with 10% FBS (Gibco/Life Technologies, Carlsbad, Calif.). For the assay, THP-1 cells are serum starved overnight in RPMI, then plated in RPMI (2×10^5 cells/well in 90 μL) into 96-well flat-bottom tissue culture treated plates (Corning, Corning, N.Y.), in the presence or absence of a concentration range of test compounds. Covered plates are incubated for 2 hours at 37° C., 5% CO2 then treated with or without 10 nM MCP-1 (MYBioSource, San Diego, Calif.) for 15 minutes at 37° C., 5% CO2. Plates are centrifuged at 1600 RPM and supernatants are removed. Cells are lysed in Lysis Buffer (Cell Signaling, Danvers, Mass.) with Protease Inhibitor (Calbiochem/EMD, Germany), PMSF (Sigma, St Louis Mo.), HALTS (Thermo Fisher, Rockford, Ill.) for 30 min on wet ice. Cell lysates are frozen at −80° C. before testing. The lysates are tested in the Human/Mouse/Rat Phospho-RPS6 ELISA (R&D Systems, Inc. Minn, Minn.). The plate is measured using a microplate reader (SpectraMax M5-Molecular Devices, LLC Sunnyvale, Calif.) set to 450 nm with a wavelength correction of 540. IC50 determination is performed by fitting the curve of inhibitor percent inhibition versus the log of the inhibitor concentration using the GraphPad Prism 5.0 software.

The target of assay [2] is PI3Kγ (p110γ) Recombinant Human Protein (Homo sapiens (Human), UniProt P48736). The experiment in a line: PI3K-γ Scintillation Proximity Assay. It counts as biochemical. The following applies: 20 μM PIP2, 2 μM ATP, 13 nM PI3Kγ, 120 min. The source says:
Example B. PI3K-γ Scintillation Proximity Assay
[γ-^33P]ATP (10 mCi/mL) and Wheat Germ Agglutinin (WGA) YSi SPA Scintillation Beads was purchased from Perkin Elmer (Waltham, Mass.). Lipid kinase substrate, D-myo-Phosphatidylinositol 4,5-bisphosphate (PtdInS(4,5)P2)D (+)-sn-1,2-di-O-octanoylglyceryl, 3-O-phospho linked (PIP2), CAS 204858-53-7, was purchased from Echelon Biosciences (Salt Lake City, Utah). PI3Kγ (p110γ) Recombinant Human Protein was purchased from Life technology (Grand Island, N.Y.). ATP, MgCl2, DTT, EDTA, MOPS and CHAPS were purchased from Sigma Aldrich (St. Louis, Mo.).
(§1) The kinase reaction was conducted in polystyrene 384-well Greiner Bio-one white plate from Thermo Fisher Scientific in a final volume of 25 μL. Inhibitors were first diluted serially in DMSO and added to the plate wells before the addition of other reaction components. The final concentration of DMSO in the assay was 2%. The PI3Kγ assay was carried out at room temperature in 20 mM MOPS, pH 6.7, 10 mM MgCl2, 5 mM DTT and CHAPS 0.03%. Reactions were initiated by the addition of ATP, the final reaction mixture consisted of 20 μM PIP2, 2 μM ATP, 0.5 μCi [γ-^33p]ATP, 13 nM PI3Kγ. Reactions were incubated for 120 min and terminated by the addition of 40 μL SPA beads suspended in quench buffer: 163 mM potassium phosphate pH 7.8, 20% glycerol, 25 mM EDTA. The final concentration of SPA beads is 1.0 mg/mL. After the plate sealing, plates were shaken overnight at room temperature and centrifuged at 1500 rpm for 10 min, the radioactivity of the product was determined by scintillation counting on Topcount (PerkinElmer). IC50 determination was performed by fitting the curve of percent of the solvent control activity versus the log of the inhibitor concentration using the GraphPad Prism 6.0 software.

The target in assay [3] is PI3Kδ (p110δ/p85α) Recombinant Human Protein (Homo sapiens (Human), UniProt O00329). The experiment in a line: PI3Kδ Scintillation Proximity Assay. Format: biochemical. The following applies: 20 μM PIP2, 2 μM ATP, 3.4 nM PI3Kδ, 120 min.
Source text: Example C. PI3Kδ Scintillation Proximity Assay
[γ-^33P]ATP (10 mCi/mL) and Wheat Germ Agglutinin (WGA) YSi SPA Scintillation Beads was purchased from Perkin Elmer (Waltham, Mass.). Lipid kinase substrate, D-myo-Phosphatidylinositol 4,5-bisphosphate (PtdInS(4,5)P2)D (+)-sn-1,2-di-O-octanoylglyceryl, 3-O-phospho linked (PIP2), CAS 204858-53-7, was purchased from Echelon Biosciences (Salt Lake City, Utah). PI3Kδ (p110δ/p85α) Recombinant Human Protein was purchased from Eurofins (St Charles, Mo.). ATP, MgCl2, DTT, EDTA, MOPS and CHAPS were purchased from Sigma Aldrich (St. Louis, Mo.).
as §1, with “PI3Kδ” for “PI3Kγ”, “[γ-^33P]ATP, 3.4” for “[γ-^33p]ATP, 13”, “PI3Kδ.” for “PI3Kγ.”
For orientation: SPA uses beads or plates that emit light when radiolabelled molecules are held near them.

Sequence of PI3Kγ (p110γ) Recombinant Human Protein (P48736 whole entry): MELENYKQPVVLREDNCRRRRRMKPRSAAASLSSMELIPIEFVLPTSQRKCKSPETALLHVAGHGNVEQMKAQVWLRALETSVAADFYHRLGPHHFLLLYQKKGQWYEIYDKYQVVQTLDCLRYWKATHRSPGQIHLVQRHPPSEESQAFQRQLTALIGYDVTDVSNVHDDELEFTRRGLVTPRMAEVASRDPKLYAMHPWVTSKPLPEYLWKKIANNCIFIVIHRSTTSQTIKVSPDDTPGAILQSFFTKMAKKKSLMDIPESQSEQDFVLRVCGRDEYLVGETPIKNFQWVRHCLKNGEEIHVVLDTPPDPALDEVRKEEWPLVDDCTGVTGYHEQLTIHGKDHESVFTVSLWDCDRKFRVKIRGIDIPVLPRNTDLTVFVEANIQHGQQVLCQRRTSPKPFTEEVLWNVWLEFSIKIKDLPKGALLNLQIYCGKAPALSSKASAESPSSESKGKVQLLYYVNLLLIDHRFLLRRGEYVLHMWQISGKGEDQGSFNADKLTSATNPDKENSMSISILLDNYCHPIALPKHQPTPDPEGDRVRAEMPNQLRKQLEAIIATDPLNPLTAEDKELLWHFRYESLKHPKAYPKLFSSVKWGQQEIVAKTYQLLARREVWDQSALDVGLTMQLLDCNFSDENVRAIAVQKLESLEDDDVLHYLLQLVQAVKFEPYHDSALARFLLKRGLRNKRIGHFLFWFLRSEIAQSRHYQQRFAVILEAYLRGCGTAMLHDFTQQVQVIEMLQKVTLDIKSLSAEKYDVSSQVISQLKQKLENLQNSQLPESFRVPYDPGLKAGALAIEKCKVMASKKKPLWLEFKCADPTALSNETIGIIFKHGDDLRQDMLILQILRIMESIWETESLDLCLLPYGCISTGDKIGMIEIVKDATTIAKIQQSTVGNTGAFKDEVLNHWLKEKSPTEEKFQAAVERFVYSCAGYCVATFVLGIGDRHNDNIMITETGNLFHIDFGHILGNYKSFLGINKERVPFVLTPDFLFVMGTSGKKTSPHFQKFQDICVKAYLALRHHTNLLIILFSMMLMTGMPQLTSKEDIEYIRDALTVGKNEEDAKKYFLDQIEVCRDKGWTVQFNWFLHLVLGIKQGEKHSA
Sequence of PI3Kδ (p110δ/p85α) Recombinant Human Protein (O00329 whole entry): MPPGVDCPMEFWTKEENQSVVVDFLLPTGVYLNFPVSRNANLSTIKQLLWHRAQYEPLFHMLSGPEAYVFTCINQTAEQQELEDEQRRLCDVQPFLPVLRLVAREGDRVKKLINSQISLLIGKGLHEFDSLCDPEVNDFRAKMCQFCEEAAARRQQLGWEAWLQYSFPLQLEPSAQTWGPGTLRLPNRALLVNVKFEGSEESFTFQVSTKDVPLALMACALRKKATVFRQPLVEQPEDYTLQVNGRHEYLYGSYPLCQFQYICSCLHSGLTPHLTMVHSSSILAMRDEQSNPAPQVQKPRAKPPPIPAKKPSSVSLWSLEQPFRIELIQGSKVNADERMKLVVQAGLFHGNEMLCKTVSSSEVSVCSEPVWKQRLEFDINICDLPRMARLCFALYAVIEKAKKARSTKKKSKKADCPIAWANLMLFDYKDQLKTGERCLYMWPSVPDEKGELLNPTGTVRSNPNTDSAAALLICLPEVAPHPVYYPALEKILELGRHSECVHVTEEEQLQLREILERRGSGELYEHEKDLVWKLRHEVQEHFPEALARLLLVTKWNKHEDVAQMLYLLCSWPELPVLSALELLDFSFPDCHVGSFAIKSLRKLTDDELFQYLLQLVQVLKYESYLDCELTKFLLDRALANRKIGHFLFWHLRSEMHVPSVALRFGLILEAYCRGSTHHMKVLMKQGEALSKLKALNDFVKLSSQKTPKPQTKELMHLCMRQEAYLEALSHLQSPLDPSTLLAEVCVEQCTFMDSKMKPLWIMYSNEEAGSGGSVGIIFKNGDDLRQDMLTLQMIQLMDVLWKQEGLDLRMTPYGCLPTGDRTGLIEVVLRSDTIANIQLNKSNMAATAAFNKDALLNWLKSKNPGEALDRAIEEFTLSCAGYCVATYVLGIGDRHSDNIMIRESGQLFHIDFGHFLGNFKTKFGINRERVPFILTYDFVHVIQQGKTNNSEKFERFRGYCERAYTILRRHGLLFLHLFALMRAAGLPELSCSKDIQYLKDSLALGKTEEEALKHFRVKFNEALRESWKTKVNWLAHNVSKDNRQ
Sequence of PI3Kδ (p110δ/p85α) Recombinant Human Protein (P27986 whole entry partner): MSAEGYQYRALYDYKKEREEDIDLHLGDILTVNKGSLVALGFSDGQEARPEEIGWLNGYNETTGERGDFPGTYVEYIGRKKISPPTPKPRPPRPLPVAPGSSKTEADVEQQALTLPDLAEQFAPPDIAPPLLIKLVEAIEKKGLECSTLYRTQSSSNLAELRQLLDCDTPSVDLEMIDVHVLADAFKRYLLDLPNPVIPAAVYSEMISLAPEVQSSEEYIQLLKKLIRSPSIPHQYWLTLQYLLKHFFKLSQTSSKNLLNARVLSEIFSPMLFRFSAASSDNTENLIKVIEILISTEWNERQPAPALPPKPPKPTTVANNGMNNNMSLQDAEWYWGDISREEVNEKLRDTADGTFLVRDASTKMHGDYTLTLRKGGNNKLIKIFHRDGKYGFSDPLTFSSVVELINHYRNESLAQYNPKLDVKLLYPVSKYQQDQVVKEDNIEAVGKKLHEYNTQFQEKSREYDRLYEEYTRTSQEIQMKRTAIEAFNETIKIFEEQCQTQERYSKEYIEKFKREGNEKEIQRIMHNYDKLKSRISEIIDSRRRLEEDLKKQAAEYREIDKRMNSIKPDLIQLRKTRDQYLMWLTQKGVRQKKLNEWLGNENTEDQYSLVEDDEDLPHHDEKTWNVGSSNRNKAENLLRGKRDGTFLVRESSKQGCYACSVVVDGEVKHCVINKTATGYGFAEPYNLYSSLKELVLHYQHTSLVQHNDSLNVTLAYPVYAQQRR

Turning to `CSc1cc(-c2cnc3c(N)nc(C(F)(F)F)cn23)cc2c1C(=O)N([C@@H](C)C1CC1)C2` [Example 2, (S)-5-(8-Amino-6-(trifluoromethyl)imidazo[1,2-a]pyrazin-3-yl)-2-(1-cyclopropylethyl)-7-(methylthio)isoindolin-1-one], the IC50 in assay [1] is at least 1000 nM; in assay [2], at most 100 nM; in assay [3] it was at most 500 nM.
Consider `C[C@@H](C1CC1)N1Cc2cc(-c3cnc4c(N)nc(C(F)(F)F)cn34)ccc2C1=O` [Example 5, (S)-5-(8-Amino-6-(trifluoromethyl)imidazo[1,2-a]pyrazin-3-yl)-2-(1-cyclopropylethyl)isoindolin-1-one], for which the IC50 in assay [1] was at least 1000 nM; in assay [2], at most 100 nM; in assay [3], at least 2000 nM.
In the same order, the values of `C[C@@H](C1CC1)N1Cc2cc(-c3cnc4c(N)nc(-c5cn[nH]c5)cn34)cc(S(C)(=O)=O)c2C1=O` [Example 38, (S)-5-(8-Amino-6-(1H-pyrazol-4-yl)imidazo[1,2-a]pyrazin-3-yl)-2-(1-cyclopropylethyl)-7-(methylsulfonyl)isoindolin-1-one, trifluoroacetate salt] are at least 1000 nM, at most 100 nM and at most 500 nM.
For `C[C@@H](C1CC1)N1Cc2cc(-c3cnc4c(N)nc(-c5cnn(C)c5)cn34)cc(S(C)(=O)=O)c2C1=O` [Example 35, (S)-5-(8-Amino-6-(1-methyl-1H-pyrazol-4-yl)imidazo[1,2-a]pyrazin-3-yl)-2-(1-cyclopropylethyl)-7-(methylsulfonyl)isoindolin-1-one, trifluoroacetate salt], in that order: at most 500 nM, at most 100 nM and at most 500 nM.
For `C[C@@H](C1CC1)N1Cc2cc(-c3cnc4c(N)nc(C(=O)N5CC(F)(F)C5)cn34)cc(S(C)(=O)=O)c2C1=O` [Example 29d, (S)-5-(8-Amino-6-(3,3-difluoroazetidine-1-carbonyl)imidazo[1,2-a]pyrazin-3-yl)-2-(1-cyclopropylethyl)-7-(methylsulfonyl)isoindolin-1-one, trifluoroacetate salt], in that order: under 1000 nM, at most 100 nM and at most 500 nM.
Take `C[C@@H](C1CC1)N1Cc2cc(-c3cnc4c(N)nc(C(=O)NC5CC(O)C5)cn34)ccc2C1=O` (stereo partly drawn) [Example 31, (S)-8-Amino-3-(2-(1-cyclopropylethyl)-1-oxoisoindolin-5-yl)-N-(3-hydroxycyclobutyl)imidazo[1,2-a]pyrazine-6-carboxamide, trifluoroacetate salt]: the half-inhibitory concentration (IC50) in assay [1] was at least 1000 nM; in assay [2], at most 100 nM; in assay [3] it was at least 2000 nM.
Regarding `CC(=O)c1cc(-c2cnc3c(N)ncnn23)cc2c1C(=O)N([C@@H](C)C1CC1)C2` [Example 15, (S)-7-Acetyl-5-(4-aminoimidazo[2,1-f][1,2,4]triazin-7-yl)-2-(1-cyclopropylethyl)isoindolin-1-one trifluoroacetate salt], the figures for the IC50 in assay [1], in assay [2] and in assay [3] were at least 1000 nM, at most 100 nM and at most 500 nM, respectively.
In the same order, the values of `C[C@@H](C1CC1)N1Cc2cc(-c3cnc4c(N)nc(C(=O)NC5CCOCC5O)cn34)ccc2C1=O` (mixture of isomers) [Example 32, 8-Amino-3-(2-((S)-1-cyclopropylethyl)-1-oxoisoindolin-5-yl)-N-(3-hydroxytetrahydro-2H-pyran-4-yl)imidazo[1,2-a]pyrazine-6-carboxamide, trifluoroacetate salt] are at least 1000 nM, at most 100 nM and at least 2000 nM.
For `C[C@@H](C1CC1)N1Cc2cc(-c3cnc4c(N)nc(C(F)(F)F)cn34)cc(Cl)c2C1=O` [Example 1, (S)-5-(8-Amino-6-(trifluoromethyl)imidazo[1,2-a]pyrazin-3-yl)-7-chloro-2-(1-cyclopropylethyl)isoindolin-1-one], in that order: at least 1000 nM, at most 100 nM and under 2000 nM.
Consider `C[C@@H](C1CC1)N1Cc2cc(-c3cnc4c(N)ncnn34)cc(C(C)(C)O)c2C1=O` [Example 17, (S)-5-(4-Aminoimidazo[2,1-f][1,2,4]triazin-7-yl)-2-(1-cyclopropylethyl)-7-(2-hydroxypropan-2-yl)isoindolin-1-one trifluoroacetate salt], for which the results for the half-maximal inhibitory concentration (IC50) in assay [1], in assay [2] and in assay [3] were under 1000 nM, at most 100 nM and under 2000 nM, respectively.
For `C[C@@H](C1CC1)N1Cc2cc(-c3cnc4c(N)nc(C(=O)NC56CC(C5)C6)cn34)cc(S(C)(=O)=O)c2C1=O` (single isomer, unassigned) [Example 29b, trifluoroacetate salt], in that order: under 1000 nM, at most 100 nM and at most 500 nM.
For `CC(c1ccccc1)N1Cc2cc(-c3cnc4c(N)ncnn34)ccc2C1=O` (racemic) [Example 12, 5-(4-Aminoimidazo[2,1-f][1,2,4]triazin-7-yl)-2-(1-phenylethyl)isoindolin-1-one, trifluoroacetate salt], the IC50 was at least 1000 nM in assay [1], at most 100 nM in assay [2] and at most 500 nM in assay [3].
In the same order, the values of `C[C@@H](C1CC1)N1Cc2cc(-c3cnc4c(N)nc(C(F)(F)F)cn34)cc(C(O)(CO)C(F)(F)F)c2C1=O` (mixture of isomers) [Example 40, 5-(8-Amino-6-(trifluoromethyl)imidazo[1,2-a]pyrazin-3-yl)-2-((S)-1-cyclopropylethyl)-7-(1,1,1-trifluoro-2,3-dihydroxypropan-2-yl)isoindolin-1-one, trifluoroacetate salt] are at least 1000 nM, at most 100 nM and under 2000 nM.
In the same order, the values of `Cc1ncc(-c2cn3c(-c4cc5c(c(S(C)(=O)=O)c4)C(=O)N([C@@H](C)C4CC4)C5)cnc3c(N)n2)o1` (single isomer, unassigned) [Example 33, trifluoroacetate salt] are at most 500 nM, at most 100 nM and at most 100 nM.
